Test results as given in US11566007B2, “Ras inhibitors” (Revolution Medicines, Inc., priority 2019, dated 2023).

Tests used:
[1] = molecular target: K-Ras G13C (Homo sapiens (Human), UniProt P01116+P62937, G13C); experiment: Ras-Raf (BRAF RBD) disruption / FRET / MOA assay, KRAS G13C; format: biochemical; details: KRAS G13C; Ras-Raf disruption/FRET/MOA assay; read-out: IC50* KRAS G13C FRET data
Outline: (§1)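 Ternary complex formation (Ras–compound–cyclophilin A) displacing BRAF RBD, monitored by TR-FRET. Three hours at 25° C with compound (top 30 μM final), then 1.5 h with the labelled antibodies. Lower ratio than DMSO indicates disruption; IC50 reported.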

[2] = system: NCI-H358 cells (K-Ras G12C); experiment: Potency assay: pERK in NCI-H358 cells; format: cell-based, human; details: Homo sapiens, NCI-H358; H358 KRAS G12C; read-out: pERK EC50
Outline: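 Compounds are dosed as ten 3-fold dilutions from a 10 mM DMSO stock, in duplicate, and left on cells for 4 h at 37 °C, 5% CO2. Phospho-ERK1/2 is then quantified by AlphaLISA SureFire Ultra or In-Cell Western, and IC50 is derived from a 4-parameter sigmoid against log concentration.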

[3] = molecular target: KRAS G13D (Homo sapiens (Human), UniProt P01116+P62937, G13D); experiment: Ras-Raf (BRAF RBD) disruption / FRET / MOA assay, KRAS G13D; format: biochemical; details: read-out: IC50* KRAS G13D FRET data
KRAS G13D, sequence (P01116-2 other isoform, or with tags, fused parts or gaps G13D): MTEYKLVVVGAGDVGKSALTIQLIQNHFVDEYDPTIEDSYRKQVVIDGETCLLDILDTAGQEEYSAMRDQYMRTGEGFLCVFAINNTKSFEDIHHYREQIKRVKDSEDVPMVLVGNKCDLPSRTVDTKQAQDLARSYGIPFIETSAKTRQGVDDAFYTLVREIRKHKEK
KRAS G13D, sequence (P62937 whole entry): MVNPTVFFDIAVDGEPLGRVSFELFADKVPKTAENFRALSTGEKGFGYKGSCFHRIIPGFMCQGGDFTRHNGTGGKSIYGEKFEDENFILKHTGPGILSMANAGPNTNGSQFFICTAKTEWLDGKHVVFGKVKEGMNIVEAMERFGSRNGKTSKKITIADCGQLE
Outline: as §1

K-Ras G13C, sequence (P01116-2 other isoform, or with tags, fused parts or gaps G13C): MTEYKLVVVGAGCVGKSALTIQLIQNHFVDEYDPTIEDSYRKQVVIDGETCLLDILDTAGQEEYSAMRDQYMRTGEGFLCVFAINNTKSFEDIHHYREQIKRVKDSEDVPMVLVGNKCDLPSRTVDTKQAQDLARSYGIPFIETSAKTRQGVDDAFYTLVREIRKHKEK
K-Ras G13C, sequence (P62937 whole entry): as the sequence (P62937 whole entry) above

| Compound | IC50 [1] | EC50 [2] | IC50 [3] |
| --- | --- | --- | --- |
| CO[C@@H](C)c1ncccc1-c1c2c3cc(ccc3n1CC(F)(F)F)-c1csc(n1)C[C@H](NC(=O)[C@H](C(C)C)N(C)C(=O)N1CCC3(CC1)CN(C(=O)/C=C/CF)C3)C(=O)N1CCC[C@H](N1)C(=O)OCC(C)(C)C2 (atropisomer, axis not shown) [Example A602] | 10 to 100 nM | < 5000 nM | 100 to 1000 nM |
| C=CC(=O)N1CCOC2(CCN(C(=O)N(C)[C@H](C(=O)N[C@H]3Cc4nc(n(C)n4)-c4ccc5c(c4)c(c(-c4cccnc4[C@H](C)OC)n5CC(F)(F)F)CC(C)(C)COC(=O)[C@@H]4CCCN(N4)C3=O)C(C)C)CC2)C1 (atropisomer, axis not shown) [Example A606] | 10 to 100 nM | < 5000 nM | 100 to 1000 nM |
| C=CC(=O)N1CC2(C1)OCCN2C(=O)N(C)[C@H](C(=O)N[C@H]1Cc2nc(cs2)-c2ccc3c(c2)c(c(-c2cccnc2[C@H](C)OC)n3CC)CC(C)(C)COC(=O)[C@@H]2CCCN(N2)C1=O)C(C)C (atropisomer, axis not shown) [Example A620] | 100 to 1000 nM | < 5000 nM | 100 to 1000 nM |
| CCn1c(-c2cccnc2[C@H](C)OC)c2c3cc(ccc31)-c1cccc(n1)C[C@H](NC(=O)[C@H](C(C)C)N(C)C(=O)N1CCC13CN(C(=O)C#CC(C)(C)N(C)C)C3)C(=O)N1CCC[C@H](N1)C(=O)OCC(C)(C)C2 (atropisomer, axis not shown) [Example A623] | 1000 to 10000 nM | < 5000 nM | 1000 to 10000 nM |
| CCn1c(-c2cccnc2[C@H](C)OC)c2c3cc(ccc31)-c1csc(n1)C[C@H](NC(=O)C[C@H](C)OC1CN(C(=O)C#CC(C)(C)N(C)C)C1)C(=O)N1CCC[C@H](N1)C(=O)OCC(C)(C)C2 (atropisomer, axis not shown) [Example A637] | 1000 to 10000 nM | < 5000 nM | 1000 to 10000 nM |
| CO[C@@H](C)c1ncccc1-c1c2c3cc(ccc3n1CC(F)(F)F)N1CCO[C@@H](C[C@H](NC(=O)[C@H](C(C)C)N3CC[C@]4(CCN(C(=O)C#CC(C)(C)N(C)C)C4)C3=O)C(=O)N3CCC[C@H](N3)C(=O)OCC(C)(C)C2)C1 (atropisomer, axis not shown) [Example A642] | 100 to 1000 nM | < 5000 nM | 1000 to 10000 nM |
| CCn1c(-c2cccnc2[C@H](C)OC)c2c3cc(ccc31)N1CCO[C@@H](C[C@H](NC(=O)[C@H](C(C)C)N(C)C(=O)C3(F)CCN(C(=O)C#CC(C)(C)N(C)C)CC3)C(=O)N3CCC[C@H](N3)C(=O)OCC(C)(C)C2)C1 (atropisomer, axis not shown) [Example A647, 1-(4-(dimethylamino)-4-methylpent-2-ynoyl)-N-((2S)-1-(((2^2S,6^3S,4S)-1^1-ethyl-1^2-(2-((S)-1-methoxyethyl)pyridin-3-yl)-10,10-dimethyl-5,7-dioxo-6^1,6^2,6^3,6^4,6^5,6^6-hexahydro-1^1H-8-oxa-2(4,2)-morpholina-1(5,3)-indola-6(1,3)-pyridazinacycloundecaphane-4-yl)amino)-3-methyl-1-oxobutan-2-yl)-4-fluoro-N-methylpiperidine-4-carboxamide] | 100 to 1000 nM | < 5000 nM | 1000 to 10000 nM |
| C=CC(=O)N1CC[C@]2(C1)OCN([C@H](C(=O)N[C@H]1Cc3cccc(n3)-c3ccc4c(c3)c(c(-c3cccnc3[C@H](C)OC)n4CC)CC(C)(C)COC(=O)[C@@H]3CCCN(N3)C1=O)C(C)C)C2=O (atropisomer, axis not shown) [Example A652] | 100 to 1000 nM | < 5000 nM | 1000 to 10000 nM |
| CCn1c(-c2cccnc2[C@H](C)OC)c2c3cc(ccc31)-c1cc(CF)cc(c1)C[C@H](NC(=O)[C@H](C(C)C)N(C)C(=O)[C@H]1CCN(C(=O)C#CC(C)(C)N(C)C)C1)C(=O)N1CCC[C@H](N1)C(=O)OCC(C)(C)C2 (atropisomer, axis not shown) [Example A658] | 100 to 1000 nM | < 5000 nM | 1000 to 10000 nM |
